Assay results as given in patent US20260055375A1, “CULTURE METHOD” (Babraham Institute, priority 2023, published 2026).

What was measured:
[1] = tested on: epithelial endometrial cells; assay: Morphometric analysis of surface epithelial cells in hormone-stimulated endometrium assembloid; type: cell-based, human
Procedure: (§1) Hormone stimulation scheme aimed to recapitulate the mid-secretory phase of human endometrial cycle when receptive phenotype optimal for embryo implantation, known as window of implantation, is acquired. For this purpose, β-oestradiol (E2) stimulation was started in upper and lower compartments for 4 days to simulate the proliferative phase of human endometrial cycle. A total volume of 300 μL of organoid media supplemented by 2% charcoal stripped FBS (Sigma Aldrich, F6765) and 10 nM of β-oestradiol (E2, Sigma E4389) was added to the top compartment of the transwell culture system. A total volume of 1 mL of hEnSC medium supplemented by 2% charcoal stripped FBS (Sigma Aldrich, F6765) and 10 nM of β-oestradiol (E2, Sigma E4389) was added to the lower compartment. Media were changed each 2 days. After 4 days, upper and lower compartments were stimulated with full hormone mixture containing E2, progesterone (P4) and 8-bromoadenosine 3′,5′-cyclic monophosphate (CAMP) for 8 days. A total volume of 300 μL of organoid media supplemented by 2% charcoal stripped FBS (Sigma Aldrich, F6765), 10 nM of E2 (Sigma E4389), 1 μM of P4 (Sigma P7556) and 1 μM of cAMP (Sigma, B7880) was added to the top compartment of the transwell culture system. A total volume of 1 mL of hEnSC medium supplemented by 2% charcoal stripped FBS (Sigma Aldrich, F6765) and […] (Sigma E4389), 1 μM of P4 (Sigma P7556) and […] (Sigma, B7880) was added to the lower compartment. Media were changed each 2 days.
(§2) Morphometric analyses were performed on stromal and epithelial compartments on proliferative phase (after 4 days of E2 stimulation) and secretory phase (after 8 days of stimulation with E2, P4 and cAMP).
Cell segmentation and cell morphometric analyses were performed from confocal microscopy images of stromal and epithelial compartment. Vimentin and cytokeratin-7 were used as stromal and epithelial markers, respectively, to determine stromal and epithelial compartment. Phalloidin signal was used to perform cell segmentation of stromal and epithelial compartments. Cell segmentation was done in an intermediate field of the whole Z-stack, choosing a relatively flat area to maximize the accuracy of the segmentation using Fiji (https://imagej.net/software/fiji/).
Epithelial cells were segmented manually using polygon selection tool from Fiji. Cell contour was drawn with multiple points to accurately fit perimeter of each cell segmented. Fit spline option (“Edit”>“Selection”>“Fit spline”) was used in all cases to smooth cell contour and maximize the match of manual cell segmentation with cell perimeter. Each Region Of Interest (ROI) corresponding to each epithelial cell segmented was added to ROI manager (“Analyse”>“Tools” >“ROI manager”).
Once acquired all ROI, the following measurements were set (“Analyse”>“Set Measurements”): area (μm^2), perimeter (μm), and shape descriptors roundness, circularity, aspect ratio, and solidity. Roundness ((4·area)/(π·major axis^2)) ranges from 0 to 1 indicating elongated or circle-like shape. Circularity (4π·area/perimeter^2) ranges from 0 to 1 and correlates with shape roughness. Aspect ratio is defined as the ratio between major and minor axis of the best fit ellipse. Solidity, defined as a ratio between area and convex area, ranges from 0 to 1, describing a concave or convex shape.

[2] = tested on: endometrial stromal cells; assay: Morphometric analysis of stromal cells in hormone-stimulated endometrium assembloid; type: cell-based, human
Procedure: as §1, §2
Cell segmentation and cell morphometric analyses were performed from confocal microscopy images of stromal and epithelial compartment. […]
Stromal length (μm) and width (μm) were acquired for each cell using the line tool from Fiji. […] In this case, only line measurements (in μm) corresponding to length and width of each stromal cell were recorded to calculate length/width ratio. […]

[3] = stromal cells, proliferative (E2 4 days) vs secretory (E2, P4 and cAMP 8 days)

## C[C@]12CC[C@@H]3c4ccc(O)cc4CC[C@H]3[C@@H]1CC[C@@H]2O [E2, β-oestradiol]
[1]; proliferative (E2 4 days) vs secretory (E2, P4 and cAMP 8 days)
  surface area (median): 75.67 μm^2
[1]; proliferative vs secretory
  aspect ratio (AR) (median): 1.584
  cell perimeters (median): 34.61 μm
  cell roundness (median): 0.6315
  circularity (median): 0.7920
  solidity (median): 0.9820
[2]; stromal cells in 3D, proliferative phase = E2 4 days, secretory phase = E2, P4 and cAMP 8 days
  length/width ratio (median): 9.14
[2]; [3]
  cell length (median): 105.4 μm
  cell width (median): 11.39 μm
